Data from article PMC4045703 (Bioorganic & medicinal chemistry, 2014).
In brackets after ≈: the same amount, converted by molar mass.

Tests used:
[1] = target: T1, Mtb-FtsZ (Mycobacterium tuberculosis, UniProt P9WN95); assay: Mtb-FtsZ polymerization inhibitory assay; assay type: biochemical; details: light scattering, Mtb-FtsZ 15 μM, GTP 100 μM
[2] = target: T1, Mtb-FtsZ; assay: Transmission electron microscopy; assay type: biochemical; details: Mtb-FtsZ 5 μM, GTP 25 μM
[3] = Cytotoxicity, MTT assay; assay type: cell-based; details: African green monkey, Vero cells
[4] = system: Mtb H37Rv; assay: MIC determination by microplate Alamar Blue assay; assay type: cell-based; details: Mycobacterium tuberculosis, read-out: MIC Mtb H37Rv

T1 sequence (P9WN95 whole entry): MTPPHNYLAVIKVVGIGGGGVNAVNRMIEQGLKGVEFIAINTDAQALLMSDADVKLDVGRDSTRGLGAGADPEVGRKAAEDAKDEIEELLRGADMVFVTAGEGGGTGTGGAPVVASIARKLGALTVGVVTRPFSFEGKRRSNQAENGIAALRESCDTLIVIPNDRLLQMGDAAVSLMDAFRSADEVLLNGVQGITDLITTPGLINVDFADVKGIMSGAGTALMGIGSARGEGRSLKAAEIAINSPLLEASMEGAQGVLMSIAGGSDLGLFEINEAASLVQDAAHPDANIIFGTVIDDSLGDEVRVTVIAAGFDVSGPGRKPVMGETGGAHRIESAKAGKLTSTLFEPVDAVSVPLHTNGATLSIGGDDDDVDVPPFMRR

## CCCCOC(=O)Nc1cc2nc(C3CCCCC3)[nH]c2cc1Oc1ccc(F)cc1 [Compound 5a, 5-Butoxycarbonylamino-2-cyclohexyl-6-(4-fluorophenoxy)-1H-benzo[d]imidazole]
[1]
  Inhibition of FtsZ polymerization: inhibited FtsZ polymerization in a dose-dependent manner
[2]; 5a 40 μM
  Effect on FtsZ polymers in TEM: the length, density and aggregation was visibly reduced
[2]; 5a 80 μM
  Effect on FtsZ polymers in TEM: very short and dispersed FtsZ polymers were observed

## O=C(Nc1cc2nc(C3CCCCC3)[nH]c2cc1Oc1ccc(F)cc1)c1ccc(F)cc1F [Compound 5d, 2-Cyclohexyl-5-(2,4-difluorobenzamido)-6-(4-fluorophenoxy)-1H-benzo[d]imidazole]
[1]
  Inhibition of FtsZ polymerization: inhibited FtsZ polymerization in a dose-dependent manner

## Cc1ccc(C(=O)Nc2cc3nc(C4CCCCC4)[nH]c3cc2Sc2ccccc2)cc1 [Compound 5f, 2-Cyclohexyl-5-(4-methxylbenzamido)-6-(phenylthio)-1H-benzo[d]imidazole]
[3]
  IC50 at 3 days: > 200 µM

## CCCCSc1cc2[nH]c(C3CCCCC3)nc2cc1NC(=O)c1ccc(C)cc1 [Compound 5i, 6-(Butylthio)-5-(4-metylbenzamido)-2-cyclohexyl-1H-benzo[d]imidazole]
[4]
  MIC: 1.25 µg/mL (≈ 2.96 µM)
